Measured values as given in PMC10377034, “Syntheses of 25-Adamantyl-25-alkyl-2-methylidene-1α,25-dihydroxyvitamin D3 Derivatives with Structure–Function Studies of Antagonistic and Agonistic Active Vitamin D Analogs” (Biomolecules, 2023).
Where two headings read alike, the source gives them in different places.

Experiments:
[1] = parameters: method as in PMID 26613420; conditions: versus natural hormone 1; cited from earlier work
[2] = tested on: VDR; conditions: cited from earlier work; for IC50: literature values, read-out: VDR Affinity IC50
[3] = tested on: VDR; conditions: literature values, cited from earlier work; for EC50: read-out: Transcriptional Activity EC50
[4] = tested on: CYP24A1 expression in intestine-derived HCT116 cells; parameters: method as in PMID 17325131; conditions: cited from earlier work
[5] = tested on: VDR; conditions: antagonist activity for 1; read-out: Antagonistic Activity IC50; cited from earlier work
[6] = tested on: CYP24A1 expression in HaCaT cells; parameters: method as in PMID 17325131, PMID 24773565; conditions: cited from earlier work
[7] = tested on: VDR; test: VDR affinity, previously reported; assay type: binding
[8] = tested on: HL-60 cell; parameters: method as in PMID 6572492; conditions: cited from earlier work
[9] = tested on: human dedifferentiated fat (DFAT) cells; test: Osteogenic differentiation assay: ALP activity in human DFAT cells; assay type: cell-based; conditions: osteogenic medium, 100 nM, 7 days, natural hormone 1 = 100%
Method: Mature adipocytes from the adipose tissue of mammals such as humans and rodents can be dedifferentiated into pluripotent cells using ceiling culture. Dedifferentiated fat (DFAT) cells have potential applications in both regenerative medicine and injury healing, as well as mesenchymal stem cells, embryonic stem cells, and induced pluripotent stem cells. The osteogenic activity of vitamin D derivatives was assessed based on alkaline phosphatase (ALP) activity.
Samples of human subcutaneous adipose tissue were obtained from patients who underwent surgery in the Department of Pediatric Surgery at Nihon University Itabashi Hospital (Tokyo, Japan). The patients gave their written informed consent, and the Ethics Committee of Nihon University School of Medicine approved this study. We prepared dedifferentiated fat (DFAT) cells using the ceiling culture method, as described previously. Briefly, the adipose tissue (approximately 1 g) was cut into small pieces and digested with a 0.1% type I collagenase solution (Koken Co., Ltd., Tokyo, Japan). […] The cells that adhered to the upper surface of the flasks were cultured for conversion to dedifferentiated fat cells. […] Cells at passages 2–4 were used for differentiation experiments.
Cells were grown to confluency in 24-well plates and incubated for a week in DMEM containing 10% FBS, 100 nM dexamethasone (Merk), 10 mM β-glycerophosphate (Merk), and […] L-ascorbic acid-2-phosphate (Merk), with 100 nM of each compound. The induction medium was replaced on day 4. The alkaline phosphatase (ALP) activity in the cell lysates was determined on day 7 with a lab assay ALP kit (Fujifilm wako). The total protein content was determined with the BCA protein assay kit (Thermo Fisher Scientific). ALP levels were normalized to the total protein content.

Structure (SMILES) | IC50 [2] [nM] | Transcriptional Activity % Efficacy of That of 1 [3] [%] | EC50 [3] [nM] | IC50 [5] [nM] | CYP24A1 expression compared to 1 [6] | also measured
C=C1[C@H](O)CC(=C/C=C2\CCC[C@]3(C)[C@@H](C#CC#C[C@@H](O)C45CC6CC(CC(C6)C4)C5)CC[C@@H]23)C[C@H]1O [ADYW2] | 5 | 86 | 1.5 | – | – | stability in MG63 cells [1]: more stable than natural hormone 1
C[C@H](/C=C/C[C@H](O)C12CC3CC(CC(C3)C1)C2)[C@H]1CC[C@H]2/C(=C/C=C3C[C@@H](O)C[C@H](O)C3)CCC[C@]12C [AD47] | 5 | 17 | 300 | 400 | 50% | CYP24A1 expression compared to 1 [4]: 75%
C=C1[C@H](O)CC(=C/C=C2\CCC[C@]3(C)[C@@H]([C@H](C)/C=C/C[C@H](O)C45CC6CC(CC(C6)C4)C5)CC[C@@H]23)C[C@H]1O [ADNY93] | 0.1 | 17 | 1 | 1.2 | – | VDR affinity, times that of AD47 (2) ([7]; effect of exocyclic methylene at C-2, values of Table 1): 50 times
C=C1/C(=C\C=C2/CCC[C@]3(C)[C@@H]([C@H](C)CCC(F)(F)C(C)(C)O)CC[C@@H]23)C[C@H](O)C[C@H]1O [24F2-1,25(OH)2D3, 24, 24-difluoro-1α, 25-dihydroxyvitamin D3] | – | – | – | – | – | activity in HL-60 cell differentiation versus natural metabolite (1) [8]: four to seven times more activity than natural metabolite (1)
C=C1[C@H](O)CC(=C/C=C2\CCC[C@]3(C)[C@@H]([C@H](C)CC#C[C@@H](O)C45CC6CC(CC(C6)C4)C5)CC[C@@H]23)C[C@H]1O [ADTK1] | 0.5 | 81 | – | – | less than 50% | ALP activity [9]: 45.6%; VDR affinity, % of that of 1 ([2]; relative to 1,25(OH)2D3 (1)): 90%
C=C1[C@H](O)CC(=C/C=C2\CCC[C@]3(C)[C@@H]([C@H](C)CC#C[C@H](O)C45CC6CC(CC(C6)C4)C5)CC[C@@H]23)C[C@H]1O [ADTK2] | 12 | > 38 | 6.6 | – | – | times less potent than 5b (25S) ([7]; 25R versus 25S epimer, values of ref 42): 24 times
